According to article PMC11420952, “A Chemical Approach to Assess the Impact of Post-translational Modification on MHC Peptide Binding and Effector Cell Engagement” (ACS Chemical Biology, 2024):
Where no end group is shown, it is not given here. [ ]: non-standard residue; d: D form. The star is where a group is joined. Biotin = O=C1N[C@H]2[C@H](CS[C@H]2CCCCC(=O)*)N1; Cit = NC(=O)NCCC[C@H](N)C(=O)O

Key:
H-2K^b [1] = molecular target: T1, H-2K^b (Mus musculus, UniProt P01901); conditions: reported in the literature; cited from earlier work
T1 construct: endogenous in cells; host or cells: RMA-S cells (TAP-deficient)
T1 sequence (P01901 22-369): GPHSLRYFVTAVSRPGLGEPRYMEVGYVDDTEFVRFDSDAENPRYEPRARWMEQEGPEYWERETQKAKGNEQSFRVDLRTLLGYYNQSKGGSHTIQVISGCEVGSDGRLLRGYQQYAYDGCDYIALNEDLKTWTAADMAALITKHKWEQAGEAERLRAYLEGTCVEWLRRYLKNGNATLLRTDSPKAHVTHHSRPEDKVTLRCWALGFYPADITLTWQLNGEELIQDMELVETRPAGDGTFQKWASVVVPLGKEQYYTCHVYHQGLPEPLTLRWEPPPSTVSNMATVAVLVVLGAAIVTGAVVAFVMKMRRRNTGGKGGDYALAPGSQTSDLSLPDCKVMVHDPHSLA
T1 sequence (P01887 21-119 partner): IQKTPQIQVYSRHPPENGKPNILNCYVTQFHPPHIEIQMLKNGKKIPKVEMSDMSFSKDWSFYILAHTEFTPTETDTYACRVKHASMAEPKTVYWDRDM

MHC on RMA-S cells = experiment: Mild acid elution of MHC-bound peptides from RMA-S cells and mass spectrometry; format: cell-based; conditions: 10^9 RMA-S cells, 20 μM peptide, mild acid elution pH 3.3, LC-MS/MS (LTQ-Orbitrap); Figures S5-S8
Experimental: We then sought to detect changes in peptide binding via a competition assay using the parent cell line (RMA) that has a competent TAP system. To this end, we performed a competition assay using the panel of OVA peptides barring PTM mark in live RMA cells. The assay was performed by coincubating RMA cells individually with PTM-modified peptides and also ovaFl (SIINFEK(FITC)L), in which the […] of lysine is modified with fluoresceine. ovaFl has long been utilized by the field to interrogate binding of untagged peptides for MHC molecules. A decrease in cellular fluorescence should indicate higher association levels with MHC molecules, thereby informing on the relative affinity of the PTM-modified molecules. Critically, this assay retains MHC molecules within a physiologically relevant context and this alternative readout should complement the RMA-S MHC stabilization assay. […]
The emitter tip of the analytical column was laser-pulled to produce an opening of 2–5 μm, and a 2 mm kasil frit was used in place of the irregular reverse phase (RP) resin. […] If the same precursor ion was selected three times or was detected twice within a 20-s repeat duration, the ion was dynamically excluded for 15 s. […]

H-2K^b [2] = molecular target: T1, H-2K^b; experiment: cell-based; conditions: RMA-S cells, peptide 20 μM, APC anti-mouse H-2K^b antibody, flow cytometry; for effect of PTM on MHC binding versus sarsWT: Figure 1C, mean ± SD n = 3, two-tailed t-test; for effect of PTM on MHC binding versus the unmodified peptide (ovaWT or mbpWT): Figures 2B and 3B, mean ± SD n = 4, two-tailed t-test
[3] = system: OVA specific TCR of B3Z T cell hybridoma; experiment: B3Z T cell activation with peptide-loaded RMA-S cells (NFAT-LacZ / CPRG); format: cell-based; conditions: RMA-S cells with peptide and B3Z T cells overnight, effector to target 1:1; β-galactosidase by CPRG, absorbance 570 nm; Figure 2C, mean ± SD n = 4
From the text: To assess the impact of ovaWT PTMs on TCR recognition, we utilized the B3Z T cell hybridoma cell line that contains an OVA specific TCR along with a NFAT-LacZ reporter gene that encodes for β-galactosidase on an IL-2 inducible promoter.[79] Upon B3Z recognition of the OVA pMHC complex on RMA-S cells, IL-2 production promotes β-galactosidase expression, which can hydrolyze chlorophenol red-β-D-galactopyranoside (CPRG), and the resulting color change is representative of activation levels.
10^5 RMA-S cells were seeded in a treated 96 well plate at 37 °C overnight. The following day the culture media was replaced with media containing indicated concentration of peptide along with 10^5 B3Z cells in culture media and coincubated overnight. Cells were then spun down at 500xg for 5 min and washed with 1X PBS a total of two times. Lysis buffer containing 0.2% saponin, 500 μM CPRG reagent, 100 mM MgCl2, and 100 mM β-mercaptoethanol in 1X PBS was added to each well. After 2–4 h absorbance 570 was recorded using a BioTek Epoch 2 microplate reader.

## SNFVSAGI [cntPEP]
H-2K^b [1]
  interaction with H-2K^b (negative control): not interact appreciably

## SIINFEKL [ovaWT, reference compound]
MHC on RMA-S cells
  detection of MHC-bound peptide after elution from live RMA-S cells: clearly detected

## Citrullinated ESIVRFPNI: sarsWT with arginine to citrulline (R5) (ESIV[Cit]FPNI)
H-2K^b [2]
  effect of PTM on MHC binding versus sarsWT: no significant effect

## Phosphoserine SIINFEKL: ovaWT with phosphorylated N-terminal serine
H-2K^b [2]
  effect of PTM on MHC binding versus the unmodified peptide (ovaWT or mbpWT): significant decrease in MHC binding
[3]
  effect of PTM on TCR recognition (B3Z activation) versus ovaWT: reduction in TCR recognition

## Biotinylated Lysine SIINFKEL: ovaWT with biotinylated lysine (SIINFK(Biotin)EL; not fully specified)
H-2K^b [2]
  effect of PTM on MHC binding versus the unmodified peptide (ovaWT or mbpWT): binding levels are altered but the change is not significant
[3]
  effect of PTM on TCR recognition (B3Z activation) versus ovaWT: reduction in TCR recognition

## N-Acetyl ESIVRFPNI [sarsWT with N-terminus acetylation]
H-2K^b [2]
  effect of PTM on MHC binding versus sarsWT: completely disrupted MHC binding

## ovaK7m3: ovaWT with trimethylation of K7
H-2K^b [2]
  effect of PTM on MHC binding versus the unmodified peptide (ovaWT or mbpWT): does not disrupt binding
MHC on RMA-S cells
  detection of MHC-bound peptide after elution from live RMA-S cells: detected by mass spectrometry
